Test results: patent US9289446B2, “Myocardial perfusion imaging methods and compositions” (GILEAD SCIENCES, INC., priority 2002, dated 2016)

Legend:
[1] = test system: blood flow velocity in LCX, BA, FA and PA; experiment: Example 4: blood flow velocity (APV) in various vascular beds in the anesthetized dog; type: in vivo; conditions: 1.0 μg/kg iv bolus
From the text: CVT-3146 is a novel selective A2A adenosine receptor agonist being developed as a pharmacologic stressor for radionuclide myocardial perfusion imaging. […] The goal of this study was to determine the differential effects of CVT-3146 on blood flow velocity in various vascular beds.
The effects of CVT-3146 were quantified as the average peak blood flow velocity (APV) using intravascular Doppler transducer tipped catheter. Heart rate (HR) and systemic arterial blood pressure (BP) were also monitored.

[2] = test system: coronary blood flow velocity; experiment: Example 2: dose-ranging study of CVT-3146 IV bolus as coronary vasodilator (coronary flow velocity, heart rate, blood pressure, adverse events); type: in vivo, human
From the text: This example is a study performed to determine the range of dosages over which the selective A2A receptor agonist, CVT-3146 can be administered and be effective as a coronary vasodilator.
The study included patients undergoing a clinically indicated coronary catheterization with no more than a 70% stenosis in any coronary artery and no more than a 50% stenosis of the study vessel had CBFv determined by Doppler flow wire. Study subject were selected after measuring baseline and peak CBFv after an intracoronary (IC) injection of 18 μg of Ado. 36 subjects were identified as meeting the study criteria of having a peak to baseline CBFv ration of ≧2.5 in response to Adenosine,
CVT-3146 was administered to the study subjects by IV bolus in less that 10 seconds in amounts ranging from 10 μg to 500 μg.
The effectiveness of both compounds was measured by monitoring coronary flow velocity. Other coronary parameters that were monitored included heart rate and blood pressure. These parameters were measured in order to evaluate the time to peak dose response, the magnitude of the dose response and the duration of the dose response. Adverse events were also monitored. Coronary blood flow velocity was measured at the left anterior descending coronary artery (LAD) or left circumflex coronary artery (LCx). The velocity measurements were taken by following standard heart catheterization techniques and inserting a 0.014 inch Doppler-tipped Flowire into the LAD or LCx vessel and thereafter monitoring blood flow velocity. In addition, hemodynamic and electrocardiographic measurements were recorded continuously.
Overall, 36 human subjects (n=36) were evaluated. Of the 36, 18 were female and 18 were male. Their mean age was 53.4 and they ranged from 24-72 years in age. Of the 36 subjects evaluated, the LAD vessel of 31 subjects was monitored, and the LCx vessel of 5 subjects was monitored. The following doses (μg) of CVT-3146 were given to the subjects in a single iv bolus: 10 (n=4); 30 (n=6); 100 (n=4); 300 (n=7); 400 (n=9); 500 (n=6).

[3] = Example 3: pharmacokinetic profile of CVT-3146 in healthy volunteers after single IV bolus (three-compartment model); type: in vivo; conditions: male, human, plasma, Total (doses 1-30 μg/kg), N=22, mean, read-out: VSS (volume of distribution at steady state)
Description: This Example is a study performed to evaluate (1) the maximum tolerated dose of CVT-3146 and (2) the pharmacokinetic profile of CVT-3146 in healthy volunteers, after a single IV bolus dose.
The study was performed using thirty-six healthy, non-smoking male subjects between the ages of 18 and 59 and within 15% of ideal body weight.
CVT-3146 was administered as an IV bolus (20, seconds) in ascending doses of […], 10, 20, and 30 μg/kg.
Pharmacokinetics: • Plasma samples were drawn during supine phase (Days 1 and 2) at 0, 1, 2, 3, 4, 5, 7, 10, 15, 20, 30, 45 minutes after dosing and at 1, 1.5, 2, 4, 6, 8, 12 and 24 hours after dosing. Urine was collected for 24 hours for CVT-3146 excretion.
A three-compartment open model was fit to the data using observed Tmax (1-4 minutes) as the duration of a zero-order infusion. Reliable parameter estimates were obtained for dose of 1-30 μg/kg. Parameters are summarized in the following (Table 2): […]

[4] = test system: myocardial ischemia detection (SPECT MPI); experiment: Example 6: stress/rest SPECT myocardial perfusion imaging, CVT-3146 versus adenosine; type: in vivo, human; conditions: 400 mcg vs 500 mcg
From the text: Pharmacologic stress SPECT myocardial perfusion imaging (MPI) with adenosine (A) is a well-accepted technique, with excellent diagnostic and prognostic value and proven safety. However, side effects are common and AV nodal block and severe flushing are poorly tolerated. Agents such as CVT-3146 selectively act upon the A2A adenosine receptor and avoid stimulation of other receptor subtypes which may prevent such adverse reactions.
To determine the ability of CVT-3146 to produce coronary hyperemia and accurately detect CAD, 35 subjects (26 men, 9 women; 67±10 years) underwent both A and CVT-3146 stress/rest MPI, with 10.0±9.1 days between studies. […] CVT-3146 [400 mcg (n=18), 500 mcg (n=17)] was administered as an IV bolus immediately followed by a saline flush, and then a Tc-99m radiopharmaceutical [sestamibi (n=34), tetrofosmin (n=1)]. SPECT images were uniformly processed, intermixed with control studies (normal and fixed-only defects), and interpreted by three observers in a blinded fashion using a 17-segment model. Quantitative analysis was also performed using 4D MSPECT. In addition to three separate readings, a consensus interpretation was performed and then a direct, same-screen comparison of A and CVT-3146 images undertaken to determine relative differences, using 5 regions per study.

[5] = Example 7: adverse effects and hemodynamic effects of CVT-3146 as pharmacologic stress agent in MPI protocol; type: in vivo, human
From the text: CVT-3146 is a selective A2A adenosine receptor agonist that produces coronary hyperemia and potentially less adverse effects due to its limited stimulation of receptor subtypes not involved with coronary vasodilation. This study evaluated the effectiveness of CVT-3146 as a pharmacologic stress agent.
36 subjects (27 men, 9 women; 67±10 years) were studied with two doses of CVT-3146 [400 mcg (n=18), 500 mcg (n=18)], administered as an IV bolus, as part of a pharmacologic stress myocardial perfusion imaging protocol.

[6] = 36 subjects, 400 or 500 mcg IV bolus

Structure (SMILES): CNC(=O)c1cnn(-c2nc(N)c3ncn([C@@H]4O[C@H](CO)[C@@H](O)[C@H]4O)c3n2)c1 [CVT-3146, (1-{9-[(4S,2R,3R,5R)-3,4-dihydroxy-5-(hydroxymethyl)oxolan-2-yl]-6-aminopurin-2-yl}pyrazol-4-yl)-N-methylcarboxamide]
- decrease in BP [1]: 12 mmHg
- time for effect on blood flow velocity to dissipate [1]: less than ten
- transient increase in HR [1]: 16 bpm
- time of maximum decrease in diastolic BP after dosing ([2]; 400 μg IV bolus): about 1 minute
- time of maximum decrease in systolic BP after dosing ([2]; 400 μg IV bolus): about 1 minute
- time of maximum increase in heart rate after dosing ([2]; 400 μg IV bolus): about 1 minute
- peak effects compared with adenosine ([2]; doses above about 100 μg): equivalent to 18 μg adenosine administered IC
- Vd [3]: 75.5 L
- dose-dependent effect on ischemia detection [4]: No dose-dependent effect
- incidence of adverse effects (AE) [5, 6]: 72%
- patients with adverse effects (AE) [5, 6]: 26 pts
- tolerability ([5]; 400 and 500 mcg IV bolus): well-tolerated and has acceptable hemodynamic effects
- Diastolic BP, peak Absolute Change ([5]; 400 and 500 mcg, mean±S.D.): −5.4 ± 7.2 mmHg
- Diastolic BP, peak Relative Change ([5]; 400 and 500 mcg, mean±S.D.): −7.9% ± 10.5%
- Heart Rate, peak Absolute Change ([5]; 400 and 500 mcg, mean±S.D.): +21.9 ± 10.4 beats per min
- Heart Rate, peak Relative Change ([5]; 400 and 500 mcg, mean±S.D.): +36.7% + 21.0%
- Systolic BP, peak Absolute Change ([5]; 400 and 500 mcg, mean±S.D.): −5.9 ± 10.7 mmHg
- Systolic BP, peak Relative Change ([5]; 400 and 500 mcg, mean±S.D.): −4.1% ± 7.6%
- serious AE ([5]; both doses): One serious AE occurred, with exacerbation of a migraine headache
- share of AEs mild to moderate ([5]; both doses): 96%
- share of AEs resolved within 15 min without treatment ([5]; both doses): 91%
- time of peak hemodynamic effect, heart rate (HR) ([5]; both doses): ≤ 0.033 h
- time of peak hemodynamic effect, systolic blood pressure (BP) ([5]; both doses): 4 min
- deviation of BP from baseline ([5]; thirty min after CVT-3146): < 2%
